Results on two compounds are retold here after patent publication US20060258729A1, “Antibacterial pyrazole carboxylic acid hydrazides” (priority 2002, published 2006).

Assay [1] concerns the target T1, B. subtilis pol IIIC (Bacillus subtilis, UniProt P13267).
T1 construct: made in house
The experiment in a line: DNA polymerase assay, B. subtilis pol IIIC. The assay is classed as biochemical.

Assay [2] concerns the target T2, B. subtilis pol IIIE (Bacillus subtilis, UniProt O34623).
T2 construct: made in house
The experiment in a line: DNA polymerase assay, B. subtilis pol IIIE. The settings on record: B. subtilis Pol IIIE IC50, 4 dNTPs, in the presence of all four dNTP substrates. The assay is classed as biochemical.

Assay [3] deals with T3, E. coli pol IIIE (Escherichia coli, UniProt P10443).
T3 construct: purchased Enzyco, Denver, Colo
The experiment in a line: DNA polymerase assay, E. coli pol IIIE. The assay is classed as biochemical. The note with it: 80 μg/mL (190-260 μM) final concentration; all four dNTPs; read-out: Percent Enzymatic Inhibition E. coli pol IIIE. In a few lines: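 Incorporation of 3H label into activated calf thymus DNA (0.4 mg/mL) from 10 μM of all four dNTPs, 10 min at 30 °C in pH 7.5 Tris/magnesium acetate, compounds in 1% DMSO. Reactions started with 0.025–0.06 units recombinant polymerase, stopped with cold TCA; IC50 and percent inhibition relative to DMSO control.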

Assay [4] has as its system Bacillus subtilis strain BD54. The experiment in a line: Inhibition of bacterial growth (MIC), Bs. The assay is classed as cell-based. The note with it: 16 to 18 hours, 37° C., read-out: Minimum Inhibitory Concentration for Bacterial Growth, Bs. In a few lines: (§1)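 Log-phase cultures were diluted to 1×10^5 CFU/mL in LB or BHI medium and exposed to two-fold serial compound dilutions (usually 80-0.078 μg/mL, 11 concentrations) with 1% DMSO final. After shaking incubation at 37° C. for 16 to 18 hours, growth was read as OD at 570 nm.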

The test system of assay [5] is Staphylococcus aureus strain IP 8. The experiment in a line: Inhibition of bacterial growth (MIC), Sa. The assay is classed as cell-based. The settings on record: IP8, 16 to 18 hours, 37° C., read-out: Minimum Inhibitory Concentration for Bacterial Growth, Sa. The gist of the method:
as §1

In assay [6] the test system is S. aureus Smith strain. The experiment in a line: Inhibition of bacterial growth (MIC), Sm. The assay is classed as cell-based, Staphylococcus aureus. The settings on record: Staphylococcus aureus, 16 to 18 hours, 37° C., read-out: Minimum Inhibitory Concentration for Bacterial Growth, Sm. In a few lines:
as §1

The test system of assay [7] is methicillin-resistant S. aureus strain 1094. The experiment in a line: Inhibition of bacterial growth (MIC), MRSA. The assay is classed as cell-based, Staphylococcus aureus. The note with it: Staphylococcus aureus, MRSA, 16 to 18 hours, 37° C., read-out: Minimum Inhibitory Concentration for Bacterial Growth, MRSA. The gist of the method: as §1
Assay [8] deals with Enterococcus faecalis strain 29212. The experiment in a line: Inhibition of bacterial growth (MIC), Efcl. The settings on record: 16 to 18 hours, 37° C., read-out: Minimum Inhibitory Concentration for Bacterial Growth, Efcl. The assay is classed as cell-based. The gist of the method: as §1
Assay [9] deals with E. faecium clinical isolate. The experiment in a line: Inhibition of bacterial growth (MIC), Efcm. The assay is classed as cell-based. The note with it: Enterococcus faecium, 16 to 18 hours, 37° C., read-out: Minimum Inhibitory Concentration for Bacterial Growth, Efcm. The gist of the method:
as §1

Assay [10] deals with vancomycin-resistant Enterococcus strain B42762. The experiment in a line: Inhibition of bacterial growth (MIC), VRE. The settings on record: VRE, 16 to 18 hours, 37° C., read-out: Minimum Inhibitory Concentration for Bacterial Growth, VRE. The assay is classed as cell-based. In a few lines: as §1
For assay [11], the system named is Escherichia coli strain J53. The experiment in a line: Inhibition of bacterial growth (MIC), Ec. The assay is classed as cell-based. The settings on record: 16 to 18 hours, 37° C., read-out: Minimum Inhibitory Concentration for Bacterial Growth, Ec. The gist of the method:
as §1

Assay [12] deals with test strains of bacteria. The experiment in a line: Inhibition of bacterial growth, whole panel of test strains. The assay is classed as cell-based. On the procedure:
Each compound was assayed against a panel of a strain of Bacillus subtilis, of strains of antibiotic-resistant and sensitive Enterococcus and Staphylococcus species, and of a strain of the Gram-negative bacterium Escherichia coli. Compounds were dissolved in DMSO at 100× the desired highest concentration and added to one well of a 96-well microassay plate. Two-fold serial drug dilutions were made across the plate in DMSO to yield 11 concentrations (usually 80-0.078 μg/mL) plus an untreated control. Drugs were then transferred to fresh plates using 1.5 μL per well. Log phase cultures were diluted to yield a concentration of 1×10^5 colony forming units/mL in either LB or BHI medium and transferred to the plates containing drug for a final volume of 150 μL. Each well, including the DMSO controls, contained a final concentration of 1% DMSO. Plates were incubated with shaking at 37° C. for 16 to 18 hours. Cell growth was determined by measuring optical density (570 nm, 1 cm path length) in a microplate reader. MIC (minimum inhibitory concentration) is equivalent to the lowest concentration at which growth is not observed. The bacterial strains and MIC determinations have been well characterized and are described elsewhere (Tarantino et al., Antimicrob. Agents Chemother., 43: 1982-1987 (1999); Daly et al., Antimicrob. Agents Chemother., 44: 2217-2221 (2000)).

In assay [13] the target is T2, B. subtilis pol IIIE. The experiment in a line: DNA polymerase assay, B. subtilis pol IIIE. The assay is classed as biochemical.
The target of assay [14] is T1, B. subtilis pol IIIC. The experiment in a line: Classical enzyme kinetic analyses (Lineweaver-Burk) with pol IIIC. The note with it: variable substrate dGTP; Compound 17 at 0, 20, 60 μM; HB-EMAU at 0, 1.6, 4.8 μM. The assay is classed as biochemical. On the procedure:
The variable substrate in the experiments for FIGS. 1A and 1B was dGTP. See text for details.
Classical enzyme kinetic analyses were performed with Compound 17 and pol IIIC in which reaction velocity was measured as a function of each substrate (dGTP) concentration at several inhibitor concentrations (0, 20, and 60 μM). The results are graphed in a double reciprocal plot by the method of Lineweaver and Burk in FIG. 1A and show the effect of varying dGTP.
Compounds of the anilinouracil (AU) family, classical DNA polymerase inhibitors, inhibit pol IIIC strictly by “competitive” inhibition. An example is shown in the double reciprocal plot in FIG. 1B for the compound N3-hydroxybutyl 6-(3′-ethyl-4′-methylanilino) uracil (HB-EMAU), tested at 0, 1.6, and 4.8 μM. Such AU compounds compete with the dGTP substrate for binding to the enzyme (Clements et al., J. Biol. Chem. 250, 522-526 (1975)). “Noncompetive” inhibitors are exemplified by the class of HIV reverse transcriptase inhibitors, 4,5,6,7-tetrahydro-5-methylimidazo[4,5,1-jk][1,4]benzodiazepin-2(1H)-one (TIBO), i.e., TIBO compounds bind a site adjacent to the active site (Spence et al., Science 267, 988-993 (1995)). In contrast, the data in FIG. 1A clearly indicate that Compound 17, a pyrazole carboxylic acid hydrazide, inhibits pol IIIC by an “uncompetitive” mechanism.

The structures appear in SMILES notation. Values after ≈ are worked out from the molar mass of the structure shown.

T2 sequence (O34623 whole entry): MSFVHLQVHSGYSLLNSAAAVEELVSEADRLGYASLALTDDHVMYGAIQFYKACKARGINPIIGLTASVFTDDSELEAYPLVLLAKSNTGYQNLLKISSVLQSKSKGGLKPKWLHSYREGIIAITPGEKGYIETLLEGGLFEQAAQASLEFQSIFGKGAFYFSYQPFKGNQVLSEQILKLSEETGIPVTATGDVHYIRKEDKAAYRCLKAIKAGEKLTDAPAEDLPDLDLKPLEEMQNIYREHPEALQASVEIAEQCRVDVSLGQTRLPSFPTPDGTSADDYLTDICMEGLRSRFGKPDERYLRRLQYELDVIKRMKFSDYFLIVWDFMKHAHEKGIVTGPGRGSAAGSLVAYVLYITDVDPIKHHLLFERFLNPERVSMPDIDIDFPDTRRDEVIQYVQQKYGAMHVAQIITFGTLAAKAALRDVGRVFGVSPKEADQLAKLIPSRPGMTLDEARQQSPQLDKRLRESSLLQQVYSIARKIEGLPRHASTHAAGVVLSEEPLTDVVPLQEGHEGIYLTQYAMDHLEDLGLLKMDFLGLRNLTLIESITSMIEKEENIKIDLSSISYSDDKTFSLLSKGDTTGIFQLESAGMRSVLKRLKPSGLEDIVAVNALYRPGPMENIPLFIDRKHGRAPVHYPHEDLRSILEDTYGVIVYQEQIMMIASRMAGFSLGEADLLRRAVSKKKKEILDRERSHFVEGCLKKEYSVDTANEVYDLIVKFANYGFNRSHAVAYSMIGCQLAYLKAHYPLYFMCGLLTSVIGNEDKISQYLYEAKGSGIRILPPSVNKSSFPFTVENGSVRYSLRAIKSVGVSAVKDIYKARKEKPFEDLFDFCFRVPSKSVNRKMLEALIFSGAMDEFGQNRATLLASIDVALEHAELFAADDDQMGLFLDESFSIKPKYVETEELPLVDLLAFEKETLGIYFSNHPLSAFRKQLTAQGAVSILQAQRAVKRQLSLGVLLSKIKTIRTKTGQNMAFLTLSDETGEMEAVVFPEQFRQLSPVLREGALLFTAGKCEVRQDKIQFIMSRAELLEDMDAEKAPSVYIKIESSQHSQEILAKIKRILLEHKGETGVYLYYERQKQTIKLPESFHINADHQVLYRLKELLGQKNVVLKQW
T1 sequence (P13267 whole entry): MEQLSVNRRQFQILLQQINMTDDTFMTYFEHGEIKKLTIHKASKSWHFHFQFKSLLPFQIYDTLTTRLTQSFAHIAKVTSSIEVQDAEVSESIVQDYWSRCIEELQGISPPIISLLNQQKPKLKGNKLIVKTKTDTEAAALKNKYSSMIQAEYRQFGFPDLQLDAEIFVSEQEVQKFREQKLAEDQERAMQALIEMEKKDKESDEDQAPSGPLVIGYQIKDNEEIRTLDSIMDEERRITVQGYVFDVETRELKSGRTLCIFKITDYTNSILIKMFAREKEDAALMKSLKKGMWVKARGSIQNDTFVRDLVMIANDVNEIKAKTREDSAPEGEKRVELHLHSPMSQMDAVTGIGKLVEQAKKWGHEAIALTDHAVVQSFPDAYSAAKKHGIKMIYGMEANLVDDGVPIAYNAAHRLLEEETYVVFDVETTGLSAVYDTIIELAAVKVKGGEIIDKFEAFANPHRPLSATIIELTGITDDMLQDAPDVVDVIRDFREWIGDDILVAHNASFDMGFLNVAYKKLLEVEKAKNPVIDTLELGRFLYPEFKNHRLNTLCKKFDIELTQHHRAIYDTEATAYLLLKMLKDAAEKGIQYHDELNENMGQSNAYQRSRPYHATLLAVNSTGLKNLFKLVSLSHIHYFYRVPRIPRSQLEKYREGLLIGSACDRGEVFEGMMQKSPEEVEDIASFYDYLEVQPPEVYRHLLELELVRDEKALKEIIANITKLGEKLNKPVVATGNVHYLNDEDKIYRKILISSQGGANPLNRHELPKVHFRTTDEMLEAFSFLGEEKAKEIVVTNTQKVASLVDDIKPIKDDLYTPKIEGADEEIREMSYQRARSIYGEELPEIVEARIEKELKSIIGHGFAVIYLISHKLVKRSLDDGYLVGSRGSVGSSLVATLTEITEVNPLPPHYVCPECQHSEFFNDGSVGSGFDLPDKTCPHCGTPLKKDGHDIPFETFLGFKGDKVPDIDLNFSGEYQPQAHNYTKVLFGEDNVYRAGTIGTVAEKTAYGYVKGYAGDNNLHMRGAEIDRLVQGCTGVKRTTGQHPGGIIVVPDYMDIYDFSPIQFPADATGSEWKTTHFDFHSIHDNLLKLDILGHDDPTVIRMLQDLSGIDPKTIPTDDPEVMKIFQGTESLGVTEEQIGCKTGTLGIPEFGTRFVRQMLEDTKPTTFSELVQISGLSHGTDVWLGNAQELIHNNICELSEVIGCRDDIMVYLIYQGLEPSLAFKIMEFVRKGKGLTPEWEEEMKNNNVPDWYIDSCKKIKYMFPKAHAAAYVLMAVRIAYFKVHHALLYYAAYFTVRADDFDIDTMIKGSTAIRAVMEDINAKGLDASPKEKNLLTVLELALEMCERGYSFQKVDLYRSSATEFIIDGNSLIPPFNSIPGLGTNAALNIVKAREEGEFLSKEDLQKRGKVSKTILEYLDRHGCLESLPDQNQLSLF
T3 sequence (P10443 whole entry): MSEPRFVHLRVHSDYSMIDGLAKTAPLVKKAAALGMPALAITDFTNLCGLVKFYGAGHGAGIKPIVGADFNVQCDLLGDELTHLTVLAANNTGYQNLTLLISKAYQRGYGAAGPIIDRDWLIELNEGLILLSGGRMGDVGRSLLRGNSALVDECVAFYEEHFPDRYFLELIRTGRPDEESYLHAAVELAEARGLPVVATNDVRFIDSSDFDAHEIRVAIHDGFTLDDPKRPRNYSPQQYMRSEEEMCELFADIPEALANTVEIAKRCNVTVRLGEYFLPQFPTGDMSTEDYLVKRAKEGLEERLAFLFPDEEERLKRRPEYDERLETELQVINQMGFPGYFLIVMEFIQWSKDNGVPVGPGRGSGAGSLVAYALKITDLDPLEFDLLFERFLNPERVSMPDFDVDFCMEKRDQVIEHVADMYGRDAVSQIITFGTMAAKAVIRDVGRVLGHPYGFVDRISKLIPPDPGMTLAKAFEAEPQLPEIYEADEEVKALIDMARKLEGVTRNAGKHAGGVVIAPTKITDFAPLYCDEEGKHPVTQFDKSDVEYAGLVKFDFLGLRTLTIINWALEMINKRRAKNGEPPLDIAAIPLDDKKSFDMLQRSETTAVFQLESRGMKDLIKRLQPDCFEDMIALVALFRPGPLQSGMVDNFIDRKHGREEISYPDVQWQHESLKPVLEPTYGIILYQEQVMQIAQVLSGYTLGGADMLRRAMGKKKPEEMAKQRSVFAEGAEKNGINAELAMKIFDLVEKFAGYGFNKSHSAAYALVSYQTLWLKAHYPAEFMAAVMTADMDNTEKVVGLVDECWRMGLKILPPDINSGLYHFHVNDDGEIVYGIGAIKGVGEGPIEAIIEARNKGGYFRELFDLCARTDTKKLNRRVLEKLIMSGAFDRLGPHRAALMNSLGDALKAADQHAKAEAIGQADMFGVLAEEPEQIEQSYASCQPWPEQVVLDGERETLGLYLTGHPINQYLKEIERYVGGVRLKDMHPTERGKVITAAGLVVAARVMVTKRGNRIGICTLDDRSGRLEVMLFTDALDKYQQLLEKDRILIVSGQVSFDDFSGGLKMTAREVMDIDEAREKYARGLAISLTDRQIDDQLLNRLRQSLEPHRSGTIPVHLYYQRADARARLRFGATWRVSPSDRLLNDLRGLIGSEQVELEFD

The inhibition is how much of the control response was suppressed. Usually IC50 stands for the concentration at which inhibition is half-maximal. As to `COc1cc(C=NNC(=O)c2cc(-c3ccccc3)n[nH]2)cc(OC)c1OC` [Compound 1], the inhibition at 80 µg/mL in [1] (80 μg/mL (190-260 μM) final concentration, all four dNTPs, read-out: Percent Enzymatic Inhibition B. subtilis pol IIIC) was 14.3%; in assay [3], 0.4%. The half-inhibitory concentration (IC50) turned out to be 188 µM in [1] (B. subtilis Pol IIIC IC50, 4 dNTPs, in the presence of all four dNTP substrates); 10 µM in assay [1] (B. subtilis Pol IIIC IC50, −dATP, in the absence of dATP); 44 µM in assay [1] (B. subtilis Pol IIIC IC50, −dCTP, in the absence of dCTP); 14 µM in assay [1] (B. subtilis Pol IIIC IC50, −dGTP, in the absence of dGTP); 166 µM in assay [2]; 75 µM in assay [13] (B. subtilis Pol IIIE IC50, −dATP, in the absence of dATP). The IC50 in [13] (B. subtilis Pol IIIE IC50, −dCTP, in the absence of dCTP) was determined as 62 µM; in assay [13] (B. subtilis Pol IIIE IC50, −dGTP, in the absence of dGTP) it was 51 µM. Besides, the MIC in [4] was 3 µg/mL (≈ 7.89 µM); in assay [5], 3 µg/mL (≈ 7.89 µM); in assay [6] it was 5 µg/mL (≈ 13.1 µM); in assay [7], 10 µg/mL (≈ 26.3 µM); in assay [8], 10 µg/mL (≈ 26.3 µM); in [9], 20 µg/mL (≈ 52.6 µM). The figures for the MIC in [10] and in [11] were 20 µg/mL (≈ 52.6 µM) and greater than 80 µg/mL, respectively. Moreover, the “Inhibition of bacterial growth, result in words (rank of MIC values)” value in [12] is given as “second”.
Consider `CCc1cc(Nc2cc(=O)n(CCCCO)c(=O)[nH]2)ccc1C` [HB-EMAU, N3-hydroxybutyl 6-(3′-ethyl-4′-methylanilino) uracil, reference compound], for which, in assay [14], the “Mechanism of inhibition of pol IIIC (double reciprocal plot)” value is on record as “competitive inhibition mechanism”.
